Converted amounts (≈) assume the structure as drawn. Read-outs that look alike come from different tables or passages of the source.
How the values were obtained:
AECO001 (ATCC25922) = test: MIC broth microdilution, AECO001; format: cell-based, E. coli; settings: for MIC: Escherichia coli; for Ratio of MICs on AECO001 [Cpd (A = —CHCH3NH2)/Cpd (A = —C(CH3)2NH2)]: MIC of paired compound with A = —CHCH3NH2 divided by MIC of compound with A = —C(CH3)2NH2, n=2 data, pairs identical except for the A moiety
How it was run: (§1)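 Incubation: 35° C., ambient air, 18-24 h. Medium: cation-adjusted Mueller-Hinton broth with 2-fold serial dilutions of drug. Inoculum: 3×10^5–7×10^5 CFU/mL final, per CLSI microdilution method.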

[1] = tested on: AECO063 (ATCC25922 bearing an acrAB mutation); test: microbe, parasite or virus in culture; format: cell-based, E. coli; settings: Escherichia coli, ATCC25922, read-out: MIC AECO063
How it was run: as §1

APAE001 (ATCC27853) = test: MIC broth microdilution, APAE001; format: cell-based, P. aeruginosa; settings: Pseudomonas aeruginosa
How it was run: as §1

[2] = tested on: APAE006 (strain of P. aeruginosa in which all efflux pumps are inactivated); test: microbe, parasite or virus in culture; format: cell-based; settings: Pseudomonas aeruginosa
How it was run: (§2)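 Minimum inhibitory concentrations followed CLSI broth microdilution guidelines: cation-adjusted Mueller-Hinton broth, 2-fold serial drug dilutions, final inoculum 3×10^5–7×10^5 CFU/mL, ambient air at 35° C. for 18-24 hours. Quality-control strains and levofloxacin monitored performance.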

[3] = tested on: APAE006 in the presence of 8 micrograms per milliliter of polymyxin B nonapeptide; format: cell-based, P. aeruginosa
How it was run: as §2

[4] = tested on: AABA1060 (clinical isolate of Acinetobacter baumannii); test: MIC broth microdilution, AABA1060; format: cell-based; settings: Acinetobacter baumannii, read-out: MIC AABA1060
How it was run: as §1

[5] = tested on: ASAU001 (laboratory strain of S. aureus, ATCC29213); test: MIC broth microdilution, ASAU001; format: cell-based; settings: Staphylococcus aureus, ATCC29213, read-out: MIC ASAU001
How it was run: as §1

ATCC43816 [6] = test: MIC broth microdilution, infecting strain ATCC43816; format: cell-based; settings: ratio >1 means the —C(CH3)2NH2 compound had a lower MIC than the paired —C(CH3)2OH compound
Description: Minimum Inhibitory Concentrations (MICs) were determined by the broth microdilution method in accordance with the Clinical and Laboratory Standards Institute (CLSI) guidelines. In brief, organism suspensions were adjusted to a 0.5 McFarland standard to yield a final inoculum between 3×10^5 and 7×10^5 colony-forming units (CFU)/mL. Drug dilutions and inocula were made in sterile, cation adjusted Mueller-Hinton Broth (Beckton Dickinson). An inoculum volume of 100 μL was added to wells containing 100 μL of broth with 2-fold serial dilutions of drug. All inoculated microdilution trays were incubated in ambient air at 35° C. for 18-24 hours. Following incubation, the lowest concentration of the drug that prevented visible growth (OD600 nm<0.05) was recorded as the MIC. Performance of the assay was monitored by the use of laboratory quality-control strains and levofloxacin, a compound with a defined MIC spectrum, in accordance with CLSI guidelines. Typically, compounds of the present invention have MIC values of […].
(§3) As shown in the following Table 3, three pairs of compounds were tested in the neutropenic thigh efficacy model. For each pair of compounds, the compounds were identical in structure except for the A moiety. More specifically, A is —C(CH3)2NH2 in one compound and A is —C(CH3)2OH in the other compound. […] In addition, the ratios of the MICs of each pair of compounds on the infecting strain (ATCC43816) was calculated.

ATCC43816 [7] = test: Neutropenic thigh efficacy model; format: in vivo, mice; settings: for Ratio of thigh static doses: neutropenic thigh model, compound with A = —C(CH3)2NH2 versus paired compound with A = —C(CH3)2OH, ratio >1 means the —C(CH3)2NH2 compound had a lower static dose; for Ratio of thigh static dose normalized to MICs: ratio of neutropenic thigh static doses normalized to the MIC ratio on ATCC43816, —C(CH3)2NH2 compound versus paired —C(CH3)2OH compound
Description: Mice were rendered neutropenic prior to infection with 2 doses of cyclophosphamide, and then infected intramuscularly in the thigh with 10^5-10^6 CFU of bacteria. See Gudmundsson S., Erlensdottir H., “Murine Thigh Infection Model” Handbook of Animal Models of Infection, M. A. Sande and O. Zak, Eds.; London: Academic Press, 1999, pp 137-144. Antibiotics or vehicle alone as a negative control were administered twice at 2 hrs and 14 hrs post-infection. At 24 hrs post-infection, thighs were harvested, homogenized, and plated to measure the number of CFUs surviving per thigh. Thighs from a subset of animals were also harvested 2 hrs post-infection to record the CFUs present just prior to the first antibiotic treatment (pre-treatment). The static dose, defined as the dose required to result in a CFU load at 24 hours that is identical to that measured at 0 hours post infection, was calculated by standard methods in Prizm from a dose response curve.
as §3

AECO001 HSA AGP = test: MIC broth microdilution, AECO001 HSA AGP; format: cell-based, E. coli; settings: Escherichia coli
How it was run: as §1

[8] = ATCC25922, read-out: MIC AECO001
[9] = ATCC25922, read-out: MIC AECO001 HSA AGP
[10] = ATCC27853, read-out: MIC APAE001, APAE001 (ATCC27853)
[11] = read-out: MIC APAE006, APAE006, all efflux pumps inactivated
[12] = APAE006 with 8 micrograms per milliliter polymyxin B nonapeptide
[13] = ATCC27853, read-out: MIC APAE001, APAE001 is ATCC27853
[14] = read-out: MIC APAE006, P. aeruginosa, all efflux pumps inactivated
[15] = in the presence of 8 micrograms per milliliter of polymyxin B nonapeptide

melting point [°C] | Compound | MIC (AECO001 (ATCC25922); [8]) [µg/mL] | MIC (AECO001 (ATCC25922); [9]) [µg/mL] | Ratio of MICs on AECO001 [Cpd (A = —CHCH3NH2)/Cpd (A = —C(CH3)2NH2)] (AECO001 (ATCC25922)) | MIC [1] [µg/mL] | MIC (APAE001 (ATCC27853); [10]) [µg/mL] | MIC [2, 11] [µg/mL] | MIC APAE006 + PMBN [3, 12] | MIC [4] [µg/mL] | MIC [5] [µg/mL] | Ratio of MICs on ATCC43816 [Cpd (A = —CH(CH3)2OH/Cpd (A = —C(CH3)2NH2)]) (ATCC43816 [6]) | Ratio of thigh static doses (ATCC43816 [7]) [x] | Ratio of thigh static dose normalized to MICs (ATCC43816 [7]) [x] | MIC (APAE001 (ATCC27853); [13]) [µg/mL] | MIC [2, 14] [µg/mL] | MIC APAE006 + PMBN [3, 15] | MIC (AECO001 HSA AGP) [µg/mL]
152 to 153 | C[C@@H](O)[C@H](NC(=O)c1ccc(F)c(Br)c1)C(=O)NO |  |  |  |  |  |  |  |  |  |  |  |  |  |  |  | 
 | CC(C)(N)[C@H](NC(=O)c1ccc(C#Cc2ccc(CN3CCCOCC3)cc2)cc1)C(=O)NO [Example 122-5] | < 2 | < 2 | 2.4 | < 2 | < 2 | < 2 | A (MIC's of 2.0 μg/mL or less = A) | < 2 | 16 to 64 (≈ 34.4 to 138 µM) | 0.5 | >2 | >4 |  |  |  | 
 | CC(C)(N)[C@H](NC(=O)c1ccc(C#CC#Cc2cccs2)cc1)C(=O)NO [Example 88-13] | < 2 | < 2 | 4.1 | < 2 | < 2 | < 2 | A (MIC's of 2.0 μg/mL or less = A) | < 2 | 2 to 16 (≈ 5.24 to 41.9 µM) | 1.6 | >7 | >4.4 |  |  |  | 
 | CC(C)(N)[C@H](NC(=O)c1ccc(C#CC#CC2CC2)cc1)C(=O)NO [Example 91-12] | < 2 | < 2 | 5.6 | < 2 | < 2 | < 2 | A (MIC's of 2.0 μg/mL or less = A) | < 2 | 2 to 16 (≈ 5.89 to 47.1 µM) | 1.0 | >3 | >3 |  |  |  | 
64 to 65 | O=C(NO)[C@H]1[C@H](O)CCN1C(=O)c1ccc(OC(F)(F)F)cc1 |  |  |  |  |  |  |  |  |  |  |  |  |  |  |  | 
 | CC(=O)NC[C@H](NC(=O)c1ccc(/C=C/C#Cc2ccc(CN3CCOCC3)cc2)cc1)C(=O)NO [Example 111-3, N-[2-acetylamino-1-((S)-hydroxycarbamoyl)-ethyl]-4-[(E)-4-(4-morpholin-4-ylmethyl-phenyl)-but-1-en-3-ynyl]-] | < 2 |  |  | < 2 |  |  |  | 2 to 16 (≈ 4.08 to 32.6 µM) | > 64 |  |  |  | 2 to 16 (≈ 4.08 to 32.6 µM) | < 2 | A (MIC's of 2.0 μg/mL or less = A) | 2 to 16 (≈ 4.08 to 32.6 µM)
 | C[C@@H](N)[C@H](NC(=O)c1ccc(C#Cc2ccc(CNS(C)(=O)=O)cc2)cc1)C(=O)NO [Example 131-2] | 2 to 16 (≈ 4.5 to 36 µM) |  |  | < 2 |  |  |  | 16 to 64 (≈ 36 to 144 µM) | > 64 |  |  |  | < 2 | < 2 | A (MIC's of 2.0 μg/mL or less = A) | 16 to 64 (≈ 36 to 144 µM)
 | C[C@@H](N)[C@H](NC(=O)c1ccc(C#Cc2ccc(CN3CCC(O)C3)cc2)cc1)C(=O)NO (some centres unmarked) [Example 115-6] | 2 to 16 (≈ 4.58 to 36.7 µM) |  |  | < 2 |  |  |  | 16 to 64 (≈ 36.7 to 147 µM) | > 64 |  |  |  | < 2 | < 2 | A (MIC's of 2.0 μg/mL or less = A) | 2 to 16 (≈ 4.58 to 36.7 µM)
 | C[C@@H](N)[C@H](NC(=O)c1ccc(C#C/C=C/c2ccc(CNC3CC3)cc2)cc1)C(=O)NO [Example 102-2] | < 2 |  |  | < 2 |  |  |  | 2 to 16 (≈ 4.62 to 37 µM) | 16 to 64 (≈ 37 to 148 µM) |  |  |  | 2 to 16 (≈ 4.62 to 37 µM) | < 2 | A (MIC's of 2.0 μg/mL or less = A) | 2 to 16 (≈ 4.62 to 37 µM)
 | CC(C)[C@H](NC(=O)c1ccc(C#C/C=C/c2ccc(CN3CCOCC3)cc2)cc1)C(=O)NO [Example 96-3] | < 2 |  |  | < 2 |  |  |  | 2 to 16 (≈ 4.33 to 34.7 µM) | 16 to 64 (≈ 34.7 to 139 µM) |  |  |  | 2 to 16 (≈ 4.33 to 34.7 µM) | < 2 | A (MIC's of 2.0 μg/mL or less = A) | 2 to 16 (≈ 4.33 to 34.7 µM)
 | C[C@@H](N)[C@H](NC(=O)c1ccc(C#C/C=C/c2ccccc2)cc1)C(=O)NO [Example 104-4] | < 2 |  |  | < 2 |  |  |  | 2 to 16 (≈ 5.5 to 44 µM) | 16 to 64 (≈ 44 to 176 µM) |  |  |  | < 2 | < 2 | A (MIC's of 2.0 μg/mL or less = A) | 2 to 16 (≈ 5.5 to 44 µM)
 | Cn1cncc1C#CC#Cc1ccc(C(=O)N[C@H](C(=O)NO)C(C)(C)O)cc1 [Example 88-10] | < 2 |  |  | < 2 |  |  |  | 2 to 16 (≈ 5.26 to 42.1 µM) | 16 to 64 (≈ 42.1 to 168 µM) |  |  |  | 2 to 16 (≈ 5.26 to 42.1 µM) | < 2 | A (MIC's of 2.0 μg/mL or less = A) | 2 to 16 (≈ 5.26 to 42.1 µM)
 | CN(C)CC(=O)NC[C@H](NC(=O)c1ccc(C#C/C=C/c2ccc(CN3CCOCC3)cc2)cc1)C(=O)NO [Example 98-2, N—[(S)-2-(2-dimethylamino-acetylamino)-1-hydroxycarbamoyl-ethyl]-4-[(E)-4-(4-morpholin-4-ylmethyl-phenyl)-but-3-en-1-ynyl]-benzamide] | < 2 |  |  | < 2 |  |  |  | 16 to 64 (≈ 30 to 120 µM) | 16 to 64 (≈ 30 to 120 µM) |  |  |  | 2 to 16 (≈ 3.75 to 30 µM) | < 2 | A (MIC's of 2.0 μg/mL or less = A) | 2 to 16 (≈ 3.75 to 30 µM)
 | C[C@@H](N)[C@H](NC(=O)c1ccc(/C=C/C#Cc2ccccc2F)cc1)C(=O)NO [Example 114-3] | < 2 |  |  | < 2 |  |  |  | < 2 | 16 to 64 (≈ 41.9 to 168 µM) |  |  |  | < 2 | < 2 | A (MIC's of 2.0 μg/mL or less = A) | 2 to 16 (≈ 5.24 to 41.9 µM)

Reference: patent US9617256B2 (priority 2007, dated 2017)
